# Reference: patent US20230348442A1, “GALECTIN-3 INHIBITING 2-HYDROXYCYCLOALKANE-1-CARBAMOYL DERIVATIVES” (Idorsia Pharmaceuticals Ltd, priority 2020, published 2023)
# Molecular target: human Gal-3 (hGal-3) (Homo sapiens (Human), UniProt P17931)
# Assay: competitive binding assay: binding of biotinylated hGal-3 to microplate-adsorbed asialofetuin (ASF), spectrophotometric
# Settings: Activity on hGal-3; mean values of several measurements
# Outline: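 Compounds in DMSO dilution series competed with 300-1000 ng/mL biotinylated hGal-3 for asialofetuin adsorbed on the plate (3 h, 4° C). Streptavidin-peroxidase at 80 ng/mL (1 h, 4° C) with ABTS gave a spectrophotometric read-out, and IC50 was reported as the mean of repeat runs.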
# Chain of human Gal-3 (hGal-3) (P17931 whole entry): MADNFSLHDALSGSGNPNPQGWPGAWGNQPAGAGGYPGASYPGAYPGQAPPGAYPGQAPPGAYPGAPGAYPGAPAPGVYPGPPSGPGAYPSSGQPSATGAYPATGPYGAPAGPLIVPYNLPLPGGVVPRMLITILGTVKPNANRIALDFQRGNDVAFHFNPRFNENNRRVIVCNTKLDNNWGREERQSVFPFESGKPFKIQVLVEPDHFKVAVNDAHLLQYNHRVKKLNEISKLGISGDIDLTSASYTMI
row,IC50 [nM],Structure (SMILES)
1,33.8,"N#Cc1cc(Cl)cc(N(C(=O)[C@@H]2O[C@H](CO)[C@H](O)[C@H](n3cc(-c4cc(F)c(F)c(F)c4)nn3)[C@H]2O)[C@H]2CC[C@@H]2O)c1 [Example 2H.1.4, (2R,3R,4S,5R,6R)-N-(3-chloro-5-cyanophenyl)-3,5-dihydroxy-N-((1S,2S)-2-hydroxycyclobutyl)-6-(hydroxymethyl)-4-(4-(3,4,5-trifluorophenyl)-1H-1,2,3-triazol-1-yl)tetrahydro-2H-pyran-2-carboxamide]"
2,446,"CO[C@@H]1[C@@H](n2cc(-c3ccc(Cl)c(Cl)c3)nn2)[C@@H](O)[C@@H](CO)O[C@H]1C(=O)N(c1cc(Br)cc(C#N)c1)[C@@H]1CC[C@H]1O [Example 2.8.5R, (2R,3R,4S,5R,6R)-N-(3-bromo-5-cyanophenyl)-4-(4-(3,4-dichlorophenyl)-1H-1,2,3-triazol-1-yl)-5-hydroxy-N-((1R,2R)-2-hydroxycyclobutyl)-6-(hydroxymethyl)-3-methoxytetrahydro-2H-pyran-2-carboxamide]"
3,334,"CO[C@@H]1[C@@H](n2cc(-c3cc(F)c(F)c(F)c3)nn2)[C@@H](O)[C@@H](CO)O[C@H]1C(=O)N(c1cc(Br)cc(Br)c1)[C@@H]1CC[C@H]1O [Example 2.1.11R, (2R,3R,4S,5R,6R)-N-(3,5-dibromophenyl)-5-hydroxy-N-((1R,2R)-2-hydroxycyclobutyl)-6-(hydroxymethyl)-3-methoxy-4-(4-(3,4,5-trifluorophenyl)-1H-1,2,3-triazol-1-yl)tetrahydro-2H-pyran-2-carboxamide]"
4,34.8,"CO[C@@H]1[C@@H](n2cc(-c3cc(F)c(F)c(F)c3)nn2)[C@@H](O)[C@@H](CO)O[C@H]1C(=O)N(c1cc(C)cc(Cl)c1)[C@H]1CCC[C@@H]1O [Example 1.1.3, (2R,3R,4S,5R,6R)-N-(3-chloro-5-methylphenyl)-5-hydroxy-N-((1S,2S)-2-hydroxycyclopentyl)-6-(hydroxymethyl)-3-methoxy-4-(4-(3,4,5-trifluorophenyl)-1H-1,2,3-triazol-1-yl)tetrahydro-2H-pyran-2-carboxamide]"
5,256,"COc1cc(C#N)cc(N(C(=O)[C@@H]2O[C@H](CO)[C@H](O)[C@H](n3cc(-c4ccc(C#N)c(F)c4)nn3)[C@H]2OC)[C@H]2CCC[C@@H]2O)c1 [Example 1.16.9, (2R,3R,4S,5R,6R)-4-(4-(4-cyano-3-fluorophenyl)-1H-1,2,3-triazol-1-yl)-N-(3-cyano-5-methoxyphenyl)-5-hydroxy-N-((1S,2S)-2-hydroxycyclopentyl)-6-(hydroxymethyl)-3-methoxytetrahydro-2H-pyran-2-carboxamide]"
6,25.7,"CO[C@@H]1[C@@H](n2cc(-c3ccc(F)c(F)c3F)nn2)[C@@H](O)[C@@H](CO)O[C@H]1C(=O)N(c1cc(Cl)cc(C#N)c1)[C@H]1CCC[C@@H]1O [Example 1.20.4, (2R,3R,4S,5R,6R)-N-(3-chloro-5-cyanophenyl)-5-hydroxy-N-((1S,2S)-2-hydroxycyclopentyl)-6-(hydroxymethyl)-3-methoxy-4-(4-(2,3,4-trifluorophenyl)-1H-1,2,3-triazol-1-yl)tetrahydro-2H-pyran-2-carboxamide]"
7,98.7,"CO[C@@H]1[C@@H](n2cc(-c3ccc(C)c(F)c3F)nn2)[C@@H](O)[C@@H](CO)O[C@H]1C(=O)N(c1cc(Br)cc(C#N)c1)[C@@H]1CC[C@H]1O [Example 2.11.5R, (2R,3R,4S,5R,6R)-N-(3-bromo-5-cyanophenyl)-4-(4-(2,3-difluoro-4-methylphenyl)-1H-1,2,3-triazol-1-yl)-5-hydroxy-N-((1R,2R)-2-hydroxycyclobutyl)-6-(hydroxymethyl)-3-methoxytetrahydro-2H-pyran-2-carboxamide]"
8,15.1,"CO[C@@H]1[C@@H](n2cc(-c3ccc(C)c(F)c3F)nn2)[C@@H](O)[C@@H](CO)O[C@H]1C(=O)N(c1cc(Cl)cc(Cl)c1)[C@H]1CCC[C@@H]1O [Example 1.11.2, (2R,3R,4S,5R,6R)-N-(3,5-dichlorophenyl)-4-(4-(2,3-difluoro-4-methylphenyl)-1H-1,2,3-triazol-1-yl)-5-hydroxy-N-((1S,2S)-2-hydroxycyclopentyl)-6-(hydroxymethyl)-3-methoxytetrahydro-2H-pyran-2-carboxamide]"
9,33.4,"CO[C@@H]1[C@@H](n2cc(-c3cc(F)c(F)c(Cl)c3)nn2)[C@@H](O)[C@@H](CO)O[C@H]1C(=O)N(c1cc(Cl)cc(C#N)c1)[C@H]1CCC[C@@H]1O [Example 1.7.4, (2R,3R,4S,5R,6R)-4-(4-(3-chloro-4,5-difluorophenyl)-1H-1,2,3-triazol-1-yl)-N-(3-chloro-5-cyanophenyl)-5-hydroxy-N-((1S,2S)-2-hydroxycyclopentyl)-6-(hydroxymethyl)-3-methoxytetrahydro-2H-pyran-2-carboxamide]"
10,135,"CO[C@@H]1[C@@H](n2cc(-c3ccc(Br)c(F)c3F)nn2)[C@@H](O)[C@@H](CO)O[C@H]1C(=O)N(c1cc(Cl)cc(C#N)c1)[C@@H]1CC[C@H]1O [Example 2.12.4R, (2R,3R,4S,5R,6R)-4-(4-(4-bromo-2,3-difluorophenyl)-1H-1,2,3-triazol-1-yl)-N-(3-chloro-5-cyanophenyl)-5-hydroxy-N-((1R,2R)-2-hydroxycyclobutyl)-6-(hydroxymethyl)-3-methoxytetrahydro-2H-pyran-2-carboxamide]"
11,376,"CO[C@@H]1[C@@H](n2cc(-c3cc(F)c(F)c(F)c3)nn2)[C@@H](O)[C@@H](CO)O[C@H]1C(=O)N(c1cccc(Br)c1)[C@@H]1CCC[C@H]1O [Example 1.1.10R, (2R,3R,4S,5R,6R)-N-(3-bromophenyl)-5-hydroxy-N-((1R,2R)-2-hydroxycyclopentyl)-6-(hydroxymethyl)-3-methoxy-4-(4-(3,4,5-trifluorophenyl)-1H-1,2,3-triazol-1-yl)tetrahydro-2H-pyran-2-carboxamide]"
12,29.7,"CO[C@@H]1[C@@H](n2cc(-c3cc(F)c(Cl)c(Cl)c3)nn2)[C@@H](O)[C@@H](CO)O[C@H]1C(=O)N(c1cc(Cl)cc(C#N)c1)[C@H]1CCC[C@@H]1O [Example 1.17.4, (2R,3R,4S,5R,6R)-N-(3-chloro-5-cyanophenyl)-4-(4-(3,4-dichloro-5-fluorophenyl)-1H-1,2,3-triazol-1-yl)-5-hydroxy-N-((1S,2S)-2-hydroxycyclopentyl)-6-(hydroxymethyl)-3-methoxytetrahydro-2H-pyran-2-carboxamide]"
13,21.9,"CO[C@@H]1[C@@H](n2cc(-c3ccc(C)c(F)c3F)nn2)[C@@H](O)[C@@H](CO)O[C@H]1C(=O)N(c1cc(Cl)cc(C#N)c1)[C@H]1CCC[C@@H]1O [Example 1.11.4, (2R,3R,4S,5R,6R)-N-(3-chloro-5-cyanophenyl)-4-(4-(2,3-difluoro-4-methylphenyl)-1H-1,2,3-triazol-1-yl)-5-hydroxy-N-((1S,2S)-2-hydroxycyclopentyl)-6-(hydroxymethyl)-3-methoxytetrahydro-2H-pyran-2-carboxamide]"
14,22.7,"Cc1c(F)cc(-c2cn([C@H]3[C@@H](O)[C@@H](CO)O[C@@H](C(=O)N(c4cc(Cl)cc(Cl)c4)[C@H]4CCC[C@@H]4O)[C@@H]3O)nn2)cc1F [Example 1H.4.2, (2R,3R,4S,5R,6R)-N-(3,5-dichlorophenyl)-4-(4-(3,5-difluoro-4-methylphenyl)-1H-1,2,3-triazol-1-yl)-3,5-dihydroxy-N-((1S,2S)-2-hydroxycyclopentyl)-6-(hydroxymethyl)tetrahydro-2H-pyran-2-carboxamide]"
